Counter-ions that a name gives are not always drawn. Like-named read-outs stand apart in the source and are kept apart here.

One test deals with 5-HT2A (Homo sapiens, UniProt P28223). Nature of the test: GPCR Calcium Flux assay (FLIPR tetra, Eurofins), 5-HT2A. Format: cell-based. To be noted: for inhibition at 10 µM: read-out: inhibition rate (%) 5-HT2A; for IC50: 8 concentrations 10 to 0.0006 uM, read-out: 50% inhibitory concentration (IC50) 5-HT2A. As to the method: (§1) In order to confirm whether the compounds prepared in the above Examples act as an agonist or antagonist against GPCR Target, Calcium Flux assay was performed in an assay plate in which the compounds prepared in the Examples, vehicle controls, and reference compounds were added, using a Fluorometric imaging plate reader (FLIPR tetra) equipment.
5-HT2A, sequence (P28223 whole entry): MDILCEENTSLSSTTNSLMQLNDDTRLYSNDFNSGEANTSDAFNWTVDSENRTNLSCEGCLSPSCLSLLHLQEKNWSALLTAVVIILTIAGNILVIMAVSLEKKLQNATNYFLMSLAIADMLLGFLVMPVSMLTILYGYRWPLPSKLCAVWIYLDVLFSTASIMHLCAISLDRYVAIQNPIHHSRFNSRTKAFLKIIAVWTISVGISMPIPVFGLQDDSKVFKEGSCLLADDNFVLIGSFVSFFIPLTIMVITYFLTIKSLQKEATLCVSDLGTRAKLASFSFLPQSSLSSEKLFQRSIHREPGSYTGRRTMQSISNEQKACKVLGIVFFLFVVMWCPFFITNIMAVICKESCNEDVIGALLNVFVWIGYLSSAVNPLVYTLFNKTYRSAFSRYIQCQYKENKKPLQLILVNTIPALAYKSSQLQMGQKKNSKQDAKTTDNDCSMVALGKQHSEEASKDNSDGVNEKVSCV
(§2) Calcium Flux assay was evaluated by entrusting the GPCR profiler assay in Safety panel assays with Eurofins. By using the Fluo-8AM calcium dye, excitation was measured at a wavelength in the range of 470 to 495 nm and Emission was measured at a wavelength in the range of 515-575 nm. GPCR Assay Buffer for Calcium Flux assay was prepared by adding 20 mM of HEPES and 2.5 mM of Probenecid to Hanks Balanced Salt Solution (HBSS) to have pH 7.4. The Compounds of Examples for evaluation of the GPCR were diluted with DMSO at a concentration of 10 mM to make a stock and then prepared by diluting in the GPCR Assay Buffer at the concentration equivalent to three times the final concentration. First, for the evaluation of GPCRs, the inhibitory activity of the compounds of the Examples was evaluated at a single concentration of 10 uM, and then the respective selected targets were four fold-diluted from 10 uM to the low side to calculate 50% inhibitory concentration (IC50), prepared at the total 8 concentrations of 10, 2.5, 0.62, 0.15, 0.04, 0.01, 0.0024, 0.0006 uM, and Calcium Flux assay for GPCR was conducted. In order to evaluate the agonist and antagonist, % inhibition rate against GPCR activity before and after treatment of the compounds and the inhibitory activity of the compounds of the Examples were determined.
(§3) As a result, when the efficacy of […] and acetylcholine of the compounds prepared in the Examples was 100%, the inhibition rate (%) at a single concentration of 10 uM was evaluated and shown in Table 8.
A general note: Calcium flux is commonly read through the fluorescence of an indicator in the cells.

The target of test [1] is T1, proton pump (H+/K+-ATPase) (Sus scrofa, UniProt P19156).
T1 construct: Gastric vesicles were prepared from a hog stomach; from tissue; host or cells: hog stomach (gastric vesicles, method of Rabon et al. 1988)
T1 sequence (P19156 2-1034 limits assumed): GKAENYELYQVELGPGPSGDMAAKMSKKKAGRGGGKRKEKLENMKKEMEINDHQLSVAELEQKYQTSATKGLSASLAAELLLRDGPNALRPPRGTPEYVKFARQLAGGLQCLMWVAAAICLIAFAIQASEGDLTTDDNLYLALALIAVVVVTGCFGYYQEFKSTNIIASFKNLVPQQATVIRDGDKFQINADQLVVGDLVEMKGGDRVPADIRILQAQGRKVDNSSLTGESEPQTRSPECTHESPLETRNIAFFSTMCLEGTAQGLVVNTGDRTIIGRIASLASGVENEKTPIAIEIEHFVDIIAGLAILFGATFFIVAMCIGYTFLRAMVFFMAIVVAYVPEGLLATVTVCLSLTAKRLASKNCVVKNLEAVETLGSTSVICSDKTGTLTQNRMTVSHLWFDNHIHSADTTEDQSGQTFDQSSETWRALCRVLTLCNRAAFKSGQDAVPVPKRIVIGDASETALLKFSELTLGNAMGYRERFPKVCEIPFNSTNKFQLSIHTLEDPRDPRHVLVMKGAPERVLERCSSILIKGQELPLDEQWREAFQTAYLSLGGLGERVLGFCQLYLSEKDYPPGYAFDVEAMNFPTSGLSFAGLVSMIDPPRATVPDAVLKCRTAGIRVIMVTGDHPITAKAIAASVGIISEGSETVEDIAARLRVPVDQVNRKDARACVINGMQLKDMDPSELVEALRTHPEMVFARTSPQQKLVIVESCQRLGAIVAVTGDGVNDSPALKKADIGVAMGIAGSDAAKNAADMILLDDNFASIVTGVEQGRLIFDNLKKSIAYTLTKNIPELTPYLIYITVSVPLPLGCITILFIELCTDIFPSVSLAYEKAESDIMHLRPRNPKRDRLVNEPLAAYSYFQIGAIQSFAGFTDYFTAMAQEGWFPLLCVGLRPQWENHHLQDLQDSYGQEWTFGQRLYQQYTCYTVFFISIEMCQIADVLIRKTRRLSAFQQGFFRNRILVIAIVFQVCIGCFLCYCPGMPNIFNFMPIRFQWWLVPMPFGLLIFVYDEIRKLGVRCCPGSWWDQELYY
T1 sequence (P18434 whole entry partner): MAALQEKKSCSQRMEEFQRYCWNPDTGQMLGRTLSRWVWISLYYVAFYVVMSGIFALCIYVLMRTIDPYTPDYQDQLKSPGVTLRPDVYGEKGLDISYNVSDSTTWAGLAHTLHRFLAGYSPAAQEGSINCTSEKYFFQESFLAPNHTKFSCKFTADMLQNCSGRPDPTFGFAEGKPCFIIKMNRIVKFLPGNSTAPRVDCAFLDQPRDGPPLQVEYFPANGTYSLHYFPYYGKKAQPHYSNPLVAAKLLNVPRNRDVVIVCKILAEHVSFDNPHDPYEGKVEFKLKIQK
Nature of the test: Inhibitory effects on proton pump (H+/K+-ATPase) activity, gastric vesicles, malachite green Pi detection. Format: biochemical. As to conditions: hog gastric vesicles, 37° C. 40 minutes, pH 7.4. The method, then: The inhibitory effects on proton pump (H^+/K^+-ATPase) activity of the compounds prepared in Examples 2, 8 and 22 were measured as follows.
Gastric vesicles were prepared from a hog stomach in accordance with the known method (Edd C. Rabon et al., Preparation of Gastric H^+, K^+-ATPase., Methods in enzymology, vol. 157 Academic Press Inc., (1988), pp. 649-654). The protein contents of gastric vesicles thus prepared were quantitatively measured with Bicinchoninic Acid (BCA) kit (Thermo Co.).
80 ul of (a predetermined concentration of a test compound, 0.5% DMSO, 2.5 mM MgCl2, 12.5 mM KCl, 1.25 mM EDTA, 60 mM Tris-HCl, pH7.4) was added to each well of 96-well plate. 10 ul of the reaction solution containing gastric vesicles (60 mmol/l, Tris-HCl buffer solution, pH 7.4), and 10 ul of Tris buffer solution containing adenosine triphosphate (10 mM ATP, Tris-HCl buffer solution, pH 7.4) were added to each well and subjected to enzymatic reaction at 37° C. for 40 minutes. […] The amount of monophosphate (Pi) in the reaction solution was measured at 570 nm by using a microplate reader (FLUOstar Omega, BMG Co.). The inhibition rate (%) was measured from the activity value of the control group and the activity value of the test compound at various concentrations, and the concentration (IC50) that inhibits H^+/K^+-ATPase activity by 50% was calculated from each % inhibition value of the compounds using Logistic 4-parameter function of Sigmaplot8.0 program.

Another test deals with T2, M2 (Homo sapiens, UniProt P08172).
T2 sequence (P08172 1-466): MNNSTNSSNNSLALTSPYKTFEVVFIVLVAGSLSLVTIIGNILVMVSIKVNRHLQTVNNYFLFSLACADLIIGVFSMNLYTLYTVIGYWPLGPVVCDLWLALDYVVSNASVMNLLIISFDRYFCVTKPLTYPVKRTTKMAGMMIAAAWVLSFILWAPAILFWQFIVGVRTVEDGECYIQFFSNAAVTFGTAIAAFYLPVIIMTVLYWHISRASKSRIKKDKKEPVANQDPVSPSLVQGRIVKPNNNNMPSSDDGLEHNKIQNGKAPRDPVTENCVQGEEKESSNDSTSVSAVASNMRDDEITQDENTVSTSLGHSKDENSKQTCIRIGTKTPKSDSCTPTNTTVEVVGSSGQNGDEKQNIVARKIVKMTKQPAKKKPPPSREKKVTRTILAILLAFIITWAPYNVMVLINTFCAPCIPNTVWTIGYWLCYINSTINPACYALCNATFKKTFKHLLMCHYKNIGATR
Nature of the test: GPCR Calcium Flux assay (FLIPR tetra, Eurofins), M2. As to conditions: for inhibition at 10 µM: single concentration of 10 uM, read-out: inhibition rate (%) M2; for IC50: 8 concentrations 10 to 0.0006 uM, read-out: 50% inhibitory concentration (IC50) M2. Type of test: cell-based. The method, then: as §1, §2, §3

A further test concerns the target T3, M1 (Homo sapiens, UniProt P11229).
T3 sequence (P11229 1-460): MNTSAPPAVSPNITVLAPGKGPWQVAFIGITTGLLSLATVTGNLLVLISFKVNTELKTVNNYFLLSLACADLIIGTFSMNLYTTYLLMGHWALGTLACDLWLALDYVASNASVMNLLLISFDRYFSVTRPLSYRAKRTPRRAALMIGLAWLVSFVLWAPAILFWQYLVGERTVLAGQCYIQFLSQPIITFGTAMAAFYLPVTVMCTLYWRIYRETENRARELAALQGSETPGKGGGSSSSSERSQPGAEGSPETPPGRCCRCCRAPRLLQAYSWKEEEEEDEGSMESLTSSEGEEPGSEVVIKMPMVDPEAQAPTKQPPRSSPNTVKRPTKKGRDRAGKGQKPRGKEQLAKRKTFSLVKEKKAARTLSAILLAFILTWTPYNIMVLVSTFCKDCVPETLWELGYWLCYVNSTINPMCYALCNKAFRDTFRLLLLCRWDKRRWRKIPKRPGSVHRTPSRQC
Nature of the test: GPCR Calcium Flux assay (FLIPR tetra, Eurofins), M1. Type of test: cell-based. To be noted: for inhibition at 10 µM: single concentration of 10 uM, read-out: inhibition rate (%) M1; for IC50: 8 concentrations 10 to 0.0006 uM, read-out: 50% inhibitory concentration (IC50) M1. The method, then: as §1, §2, §3

The term inhibition denotes the change of the read-out against control, counted positive when it falls. Take `CNCc1cn(S(=O)(=O)c2cccc(C(F)(F)F)c2)c(-c2ccccc2F)c1OC` [Example 2, hydrochloride]: the figures for the inhibition at 10 µM on 5-HT2A, on M2 and on M1 were 39.5%, -4.7% and 92.7%, respectively. The IC50 in test [1] stood at 0.015 µM.
In the case of `CNCc1cn(S(=O)(=O)c2cccc(F)c2)c(-c2ccc(F)cc2F)c1OC.Cl` [Example 8, 1-(5-(2,4-difluorophenyl)-1-((3-fluorophenyl)sulfonyl)-4-methoxy-1H-pyrrol-3-yl)-N-methylmethanamine hydrochloride], the IC50 on 5-HT2A is 0.11 µM; in test [1], 0.024 µM; at M2 it was 0.65 µM; on M1, 0.14 µM. Besides, the inhibition at 10 µM is 102% on 5-HT2A (single concentration of 10 uM), 101% at M2 and 101% at M1.
For `CNCc1cn(S(=O)(=O)c2cccc(F)c2)c(-c2c(F)cc(F)cc2F)c1OC.Cl` [Example 22, 1-(1-((3-fluorophenyl)sulfonyl)-4-methoxy-5-(2,4,6-trifluorophenyl)-1H-pyrrol-3-yl)-N-methylmethanamine hydrochloride], the IC50 was 0.033 µM on 5-HT2A, 0.014 µM in test [1], 1 µM on M2 and 0.37 µM on M1. Also, the figures for the inhibition at 10 µM at 5-HT2A (single concentration of 10 uM), at M2 and at M1 were 102%, 100% and 98%, respectively.
